Results as given in patent publication US20220402867A1, “SULFO-SUBSTITUTED BIARYL COMPOUND OR SALT THEREOF, PREPARATION METHOD THEREFOR, AND USE THEREOF” (Shanghai Litedd Co., Ltd., priority 2019, published 2022).

Assays:
[1] = Pharmacokinetic (PK) assay in mice; assay type: in vivo; settings: CD-1 mice
Method: The PK of each compound was determined as follows: 6 CD-1 mice (obtained from Shanghai Lingchang Biotechnology Co., Ltd.) were divided into two groups, 3 mice in each group. One group was administered intravenously at a dose of 1 mg/kg, and the vehicle was 5% DMSO/40% PEG400/55% (20% 3-CD); one group was administered by oral gavage at a dose of 5 mg/kg, and the vehicle was DMSO/1% methylcellulose (1:99). Blood samples were collected from saphenous vein of lower leg in each group at 0, 0.083, 0.25, 0.5, 1, 2, 4, 6, 8 and 24 h after administration. Approximately 40 μL of the blood samples were collected into anticoagulant tubes containing EDTA-K2. Immediately after collection, the tubes were inverted at least 5 times to ensure uniform mixing, and then placed on ice. The blood samples collected at each time point were centrifuged at 4° C., 8000 rpm for 5 minutes to obtain plasma. Another 1.5 mL centrifuge tube was marked with the compound name, animal number, and time point, and the plasma was transferred to this tube. The plasma was stored at −80° C. until analysis.
Compound concentrations in plasma were determined by UPLC-MS/MS method, and the pharmacokinetic parameters were calculated by Phoenix WinNolin 6.4 pharmacokinetic software on the obtained data.

GST-RORγ LBD (263-509) = molecular target: T1, GST-RORγ LBD (263-509) (Homo sapiens, UniProt P51449); experiment: TR-FRET assay of agonistic activity on RORγ receptor; assay type: biochemical; settings: for EC50: TR-FRET, GST-RORγ LBD with Biotin-SRC1
T1 construct: GST-RORγ LBD ((263-509) (produced at ChemPartner))
T1 sequence (P51449 263-509): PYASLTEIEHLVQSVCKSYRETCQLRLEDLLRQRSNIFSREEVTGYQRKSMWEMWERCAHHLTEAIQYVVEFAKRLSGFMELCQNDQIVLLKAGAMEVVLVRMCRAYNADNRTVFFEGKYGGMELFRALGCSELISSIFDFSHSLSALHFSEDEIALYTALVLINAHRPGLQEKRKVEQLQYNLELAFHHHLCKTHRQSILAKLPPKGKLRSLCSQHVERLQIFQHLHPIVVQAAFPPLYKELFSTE
Method: A time-resolved fluorescence resonance energy transfer (TR-FRET) assay was used for the compounds of the present disclosure, to determine the agonistic activity of the compounds on the RORγ protein receptor. The agonistic activity is expressed by the concentration for 50% of maximal effect (EC50). The experiment was performed basically with reference to the methods described in ONCOIMMUNOLOGY, 2016, VOL. 5, NO. 12, e1254854.
1. Preparation of RORγ Basal Buffer
A 100 mL basal buffer was prepared, mixed homogeneously and stored for use;
The compounds of the examples shown in the table below were prepared into solutions with DMSO as the solvent, serially diluted at 3-fold dilution to 10 concentrations starting from 10 mM, and added to the corresponding wells of a 384-well plate with each concentration of each compound in duplicate;
a. A 75 nM solution of GST-RORγ LBD ((263-509) (produced at ChemPartner)) and a 4 nM solution of Biotin-SRC1 (Glsbiochem) were prepared with the above basal buffer. The two solutions were 1:1 mixed evenly, and 10 μL of the mixed solution was added into each well of the above 384-well plate. The plate was immediately centrifugated at 1000 rpm for 10 seconds; b. A 1 nM solution of Anti-GST Eu (Cisbio, #61GSTKLA) and a 50 nM solution of SA-APC (Cisbio, […]) were prepared with the above basal buffer. The two solutions were 1:1 mixed evenly, and 10 μL of the mixed solution was added into each well of the above 384-well plate. The plate was immediately centrifugated at 1000 rpm for 10 seconds; c. The resulting 384-well plate was incubated at room temperature for 15 minutes. Data were read on an Envision microplate reader, EC50 values and E max % were calculated.
a. Readings were taken at 665 nm and 615 nm wavelengths respectively on the Envision Microplate Reader, and the ratios between them were normalized. b. Calculation was carried out with the following equation: […]
wherein X is the reading of compounds, Min is the reading of the blank solution, and Max is the reading of 10 μM SRC. c. The concentration-response curve data were fitted by a four-parameter logistic nonlinear regression model, and Emax was the TOP value of the fitted curve.

[2] = Metabolic stability in mouse liver microsomes; assay type: in vitro ADME, CD-1 mice; settings: for half-life: CD-1; for microsomal CLint: CD-1, 0.5 mg protein/mL
Source text: (§1) According to standard methods of in vitro metabolic stability studies in the art, eg., the methods described in Kerns, Edward H. and Di Li (2008). Drug-like Properties: Concepts, Structure Design and Methods: from ADME to Toxicity Optimization. San Diego: Academic Press; Di, Li et al., Optimization of a Higher Throughput Microsomal Stability Screening Assay for Profiling Drug Discovery Candidates, J. Biomol. Screen. 2003, The method described in 8(4), 453, the liver microsomal metabolic stability test of the compounds of the present disclosure was carried out analogously as follows.
(§2) The incubation system contained 0.5 mg protein/mL microsomes, cofactors, and PBS, was pre-incubated at 37° C. for 3 min, and then added the substrate (i.e., the test compounds) to initiate the reaction. Samples were taken at 0, 1, 5, 10, 15, 20, 30 and 60 min from the start of the reaction, and an appropriate terminator was added to terminate the reaction.
(§3) The terminator was an ice acetonitrile solution containing 100 ng/mL tolbutamide and 100 ng/mL labetalol.
(§4) Sample treatment (n=3): each appropriate sample was added, vortexed and centrifuged at high speed. The supernatants were collected, and the substrate was detected by HPLC-MS/MS. The peak area at the 0 min was taken as 100%. The peak areas at other time points were converted to percentage of the remaining amount. The natural logarithms of the percentage of remaining amount at each time point was plotted against the incubation time, and the slope (−k) was calculated by linear regression. Then, Clint (uL/min/mg) and half-life (T½, min) of the compounds were calculated following the equation of the inherent clearance rate (Clint)=(k* volume of incubation solution)/mass of liver microsomes.

[3] = Metabolic stability in human liver microsomes; assay type: in vitro ADME; settings: for microsomal CLint: 0.5 mg protein/mL
Source text: as §1, §2, §3, §4

[4] = molecular target: T2, RORγt (RORγ-LBD chimeric receptor) (Homo sapiens, UniProt P51449); experiment: Luciferase reporter gene assay of RORγt agonistic activity in HEK293T cells; assay type: cell-based; design: Emax: dose or concentration left out as unconfirmed; settings: for EC50: HEK293T, GAL4 luciferase reporter, read-out: EC50; for Emax: HEK-293T
T2 construct: host or cells: HEK293T
T2 sequence (P51449 269-508 limits assumed): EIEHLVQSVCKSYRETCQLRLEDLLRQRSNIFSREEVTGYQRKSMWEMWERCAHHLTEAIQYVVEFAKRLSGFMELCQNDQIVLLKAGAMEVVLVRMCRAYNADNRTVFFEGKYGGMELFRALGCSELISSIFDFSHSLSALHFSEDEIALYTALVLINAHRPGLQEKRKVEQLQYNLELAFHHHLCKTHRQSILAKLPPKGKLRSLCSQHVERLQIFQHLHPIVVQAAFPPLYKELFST
Source text: This assay was basically carried out according to the method described in the literature ONCOIMMUNOLOGY, 2016, VOL. 5, NO. 12, e1254854.
The RORγ-LBD coding sequence was inserted into pBIND plasmid (Promega, E1581). This expression vector and a reporter vector (pGL4.35 carrying a stably integrated luciferase reporter gene driven by GAL4 promoter) were co-expressed in HEK293T host cells. When the agonist binds to the corresponding chimeric receptor, the chimeric receptor binds to the GAL4 binding site on the reporter gene carrier and stimulates reporter gene expression. The agonistic activity of the compound on RORγ was determined according to the intensity of the chemiluminescence signal.
1.1 All test compounds were serially diluted at 3-fold dilution with DMSO, with 10 serial dilutions starting from 10 mM; LIT-00093 solution was prepared similarly. […] 1.4 The compound plate was sealed and shaken for 5 min.
Cells were cultured according to ATCC standard operation, and 6*10^6 HEK293T cells were seeded into 100 mm cell culture dishes, cultured overnight in a 37° C., 5% CO2 incubator, and then transfected. Compounds of corresponding concentrations were added for treatment, and the Steady-Glo™ kit (Lot E 2520) was used for further detection.
Chemiluminescence values were detected with Envision 2104; EC50 values were calculated.
% Activity was calculated with the following equation: […]
RLU: […] R L Upositive: average value of positive control R L Uvehicle: average value of negative control
The log values of the compound concentration and % Activity were fitted using Graphad 8.0, to calculate EC50s of the compounds.

[5] = maximum activation rate, TOP of fitted curve

Row | Structure (SMILES) | CL_obs ([1]; IV 1 mg/kg, values marked **) | AUC(0-t) ([1]; mouse, plasma, IV 1 mg/kg) | Cmax ([1]; mouse, plasma, IV 1 mg/kg) | half-life ([1]; mouse, plasma, IV 1 mg/kg) | Vd ([1]; mouse, plasma, IV 1 mg/kg, values marked *, read-out: Vss) | bioavailability ([1]; mouse, plasma, Po 5 mg/kg vs IV 1 mg/kg) | AUC(0-t) ([1]; mouse, plasma, Po 5 mg/kg) | Cmax ([1]; mouse, plasma, Po 5 mg/kg) | half-life ([1]; mouse, plasma, Po 5 mg/kg) | EC50 (GST-RORγ LBD (263-509)) | Emax % (GST-RORγ LBD (263-509); [5]) | % Remaining (T = 60 min) [2] | half-life [2] | microsomal CLint [2] | half-life [3] | microsomal CLint [3] | % Remaining (T = 60 min) [3] | Emax (GST-RORγ LBD (263-509); [5]) | EC50 [4] | Emax [4]
1 | CCS(=O)(=O)c1ccc(C(COC)C(=O)Nc2cc(Cl)c(-c3ccc(S(=O)(=O)C4CC4)cc3)c(Cl)c2)cc1 (single isomer, unassigned) [Example 41, (S)—N-(2,6-dichloro-4′-(cyclopropylsulfonyl)-[1,1′-biphenyl]-4-yl)-2-(4-(ethylsulfonyl)phenyl)-3-methoxypropionamide or (R)—N-(2,6-dichloro-4′-(cyclopropylsulfonyl)-[1,1′-biphenyl]-4-yl)-2-(4-(ethylsulfonyl)phenyl)-3-methoxypropionamide] | 15.4** mL/min/kg | 1060 ng·h/mL | 601 ng/mL | 102 min | 2.02 L/kg | 116% | 6380 ng·h/mL | 1450 ng/mL | 163 min | 24.6 nM | 174.7% |  |  |  |  |  |  |  |  | 
2 | CCS(=O)(=O)c1ccc(CC(=O)Nc2cc(Cl)c(-c3ccc(S(=O)(=O)CC)cc3)c(Cl)c2)cc1 [Example 1, N-(2,6-Dichloro-4′-(ethylsulfonyl)-[1,1′-biphenyl]-4-yl)-2-(4-(ethylsulfonyl)phenyl)acetamide] |  |  |  |  |  |  |  |  |  | 14.5 nM |  | 11.70% | 20.5 min | 67.6 µL/min/mg | 41.8 min | 33.1 µL/min/mg | 32.4% | 213% | 47 nM | 87.1%
3 | CCS(=O)(=O)c1ccc(CC(=O)Nc2cc(Cl)c(-c3ccc(S(=O)(=O)C(C)C)cc3)c(Cl)c2)cc1 [Example 3, N-(2,6-Dichloro-4′-(isopropylsulfonyl)-[1,1′-biphenyl]-4-yl)-2-(4-(ethylsulfonyl)phenyl)acetamide] |  |  |  |  |  |  |  |  |  | 14 nM |  |  |  |  | 13.9 min |  | 4.6% | 223% | 14 nM | 50.5%
4 | CS(=O)(=O)c1ccc(CC(=O)Nc2cc(Cl)c(-c3ccc(S(C)(=O)=O)cc3)c(Cl)c2)cc1 [Example 7, N-(2,6-Dichloro-4′-(methylsulfonyl)-[1,1′-biphenyl]-4-yl)-2-(4-(methylsulfonyl)phenyl)acetamide] |  |  |  |  |  |  |  |  |  | 10 nM |  | 88.20% | > 145 min | < 9.6 µL/min/mg | > 145 min | < 9.6 µL/min/mg | 80.1% | 169% | 41 nM | 39.4%
5 | CS(=O)(=O)c1ccc(-c2c(Cl)cc(NC(=O)Cc3ccc(S(C)(=O)=O)cn3)cc2Cl)cc1 [Example 10, N-(2,6-Dichloro-4′-(methylsulfonyl)-[1,1′-biphenyl]-4-yl)-2-(5-(methylsulfonyl)pyridin-2-yl)acetamide] |  |  |  |  |  |  |  |  |  | 114 nM |  | 89.90% | > 145 min | < 9.6 µL/min/mg | > 145 min | < 9.6 µL/min/mg | 92.5% | 159% | 1460 nM | 59%
6 | CCS(=O)(=O)c1ccc(C(CO)C(=O)Nc2cc(Cl)c(-c3ccc(S(=O)(=O)C4CC4)cc3)c(Cl)c2)cc1 (centres unmarked) [Example 22-1, N-(2,6-Dichloro-4′-(cyclopropylsulfonyl)-[1,1′-biphenyl]-4-yl)-2-(4-(ethylsulfonyl)phenyl)-3-hydroxypropionamide] |  |  |  |  |  |  |  |  |  | 7 nM |  |  |  |  |  |  |  | 179% | 139 nM | 73.8%
7 | CS(=O)(=O)c1ccc(C(CO)C(=O)Nc2cc(Cl)c(-c3ccc(S(=O)(=O)C4CC4)cc3)c(Cl)c2)cc1 (centres unmarked) [Example 33, N-(2,6-Dichloro-4′-(cyclopropylsulfonyl)-[1,1′-biphenyl]-4-yl)-2-(4-(methylsulfonyl)phenyl)-3-hydroxypropionamide] |  |  |  |  |  |  |  |  |  | 13.3 nM |  |  |  |  |  |  |  | 202% | 93 nM | 69.8%
8 | COCC(C(=O)Nc1ccc(-c2ccc(S(=O)(=O)C3CC3)cc2)c(C(F)(F)F)c1)c1ccc(S(C)(=O)=O)cc1 (centres unmarked) [Example 42, N-(4′-(Cyclopropylsulfonyl)-2-(trifluoromethyl)-[1,1′-biphenyl]-4-yl)-3-methoxy-2-(4-(methylsulfonyl)phenyl)propionamide] |  |  |  |  |  |  |  |  |  | 12.6 nM |  |  |  |  |  |  |  | 194% | 105 nM | 60.7%
